According to patent US20250236841A1, “METHODS TO ENHANCE TUMOR IMMUNOGENICITY AND COMPOSITIONS FOR AUTOLOGOUS CANCER IMMUNOTHERAPEUTIC PRODUCTS USING MODIFIED TUMOR CELLS AND MODIFIED DENDRITIC CELLS” (AIVITA BIOMEDICAL, INC., priority 2017, published 2025):
Where a SMILES comes first, the peptide text is derived from it. The star is where a group is joined. Cbz = O=C(OCc1ccccc1)*; CH2F = FC*

Legend:
Type in all cases: cell-based
[1] = tested on: isolated live cancer cells; assay: augmentation culture with proteasome inhibitors (Example 4); conditions: lactacystin 0.1-1 μM, epoxomicin 1-2 μM, and/or HMB 10-150 μg/mL; at least the last 24 hours prior to harvest
Experimental: Isolated live cancer cells are placed in tissue culture. The tissue culture medium is supplemented with lactacystin at a concentration of 0.1-1 μM, epoxomicin at a concentration of 1-2 μM, and/or HMB at a concentration of 10-150 μg/mL. The inhibitor can be present throughout the augmentation phase of culture, or a portion thereof, but at least the last 24 hours prior to harvest. Doses in the lower end of the stated ranges are appropriate for longer term exposure. Doses at the high end of the state ranges can be used in the last 24 hours of cultivation. The content of protein (including normal, mutated and misfolded proteins) in the cancer cells is increased.

[2] = tested on: established ovarian tumor line; assay: cell survival of ovarian tumor line culture exposed to proteasome inhibitor and/or caspase inhibitor
Experimental: To benefit from the increased antigen content that can be obtained through use of a proteasome inhibitor, but also avoid triggering apoptosis, the proteasome inhibitor can be used in conjunction with a caspase inhibitor. First, to find the concentration of the proteasome inhibitor that caused minimal cell death, a range of bortezomib dilutions were tested in vitro on an established ovarian tumor line after reaching 70-90% confluence. The cultures were maintained in a standard DMEM:F12 media with 5% FBS. Bortezomib was reconstituted in DMSO and added directly to the cultures in concentrations from 0.1 to 100 nM
A concentration of 20 μM was chosen for further experiments.
Then the sequential application of the caspase inhibitor and proteasome inhibitor was tested. The tumor cells were cultured in the presence of 20 μM caspase inhibitor Z-VAD-fmk for 24 hours and then the medium was exchanged for medium containing bortezomib and the cells culture for another 48 hours. Bortezomib was used at the lowest concentration of that induced cell death, 5 nM.
The simultaneous application of Bortezomib and Z-VAD-fmk was also tested using 1 nM Botezomib with either 1 or 20 μM Z-VAD-fmk.

CA125 = assay: antibody labeling and epifluorescence imaging of protein content, CA125; conditions: bortezomib 0.1 nM to 1.0 nM, without caspase inhibitor (FIGS. 6 and 7)
Source text: (§1) To evaluate protein content, we queried two targets that are commonly found in cancers: CA125, which is typically specific for ovarian cancer, and MUC1, which is common in many types of cancer (for example, colon, breast, ovarian, lung and pancreatic). The proteins were labeled using antibodies conjugated with Alexa Fluor 488 (green; anti-MUC1) or 594 (red; anti-CA125). The cells were imaged with an epifluorescence microscope (Nikon) with pre-set parameters for exposure and magnification.

MUC1 = assay: antibody labeling and epifluorescence imaging of protein content, MUC1; conditions: bortezomib 0.1 nM to 1.0 nM, without caspase inhibitor (FIGS. 6 and 7)
Source text: as §1

[3] = tested on: isolated live cancer cells; assay: depletion of Wnt signaling ligands (Example 7); conditions: beta-methyl-cyclodextrin 0.5-20 mM, one half to 3 hours prior to the end of the augmentation phase
Experimental: Isolated live cancer cells are placed in tissue culture. One half to 3 hours prior to the end of the augmentation phase and preparation for DC loading, the tissue culture medium is supplemented with beta-methyl-cyclodextrin at a concentration of 0.5-20 mM. Cholesterol and Wnt ligands are depleted from the plasma membrane of the cancer cells.

[4] = tested on: isolated live cancer cells; assay: augmentation culture with histone deacetylase inhibitors (Example 2); conditions: 0.01 mM to 10 mM each in the medium during augmentation phase
Experimental: Isolated live cancer cells are placed in tissue culture. During an augmentation phase, the tissue culture medium is supplemented with valproic acid or phenylbutyrate, or both, each at a concentration of 0.01 mM to 10 mM each. The level of histone acetylation, mRNA transcription, and protein expression, including expression of TAA, all increase.

[5] = tested on: isolated live cancer cells; assay: culture with caspase inhibitor (Example 6); conditions: Z-VAD-fmk 5-50 μM throughout proliferation and augmentation phases
Experimental: Isolated live cancer cells are placed in tissue culture. The tissue culture medium is supplemented with the broad spectrum caspase inhibitor Z-VAD-fmk at a concentration of 5-50 μM. The caspase inhibitor is added at the initiation of cell culture and maintained throughout the proliferation and augmentation phases of culture.

[6] = tested on: isolated live cancer cells; assay: augmentation culture with DNA methyltransferase inhibitor (Example 3); conditions: decitabine 100-500 nM throughout, or 1 μM-10 μM at beginning of augmentation phase
Experimental: Isolated live cancer cells are placed in tissue culture. The tissue culture medium is supplemented with decitabine from the beginning of the augmentation phase for not less than one hour and up to the entire augmentation phase depending on concentration. A concentration of 100-500 nM can be used throughout the augmentation phase of cultivation. Alternatively a higher concentration of 1 μM-10 μM can be used at beginning of the augmentation phase and then removed or reduced to the lower concentration.

With `CC[C@H](C)[C@H](NC(=O)[C@H]([C@@H](C)CC)N(C)C(C)=O)C(=O)N[C@H](C(=O)N[C@@H](CC(C)C)C(=O)[C@@]1(C)CO1)[C@@H](C)O` [epoxomicin] the “content of protein (including normal, mutated and misfolded proteins) in the cancer cells” value [1] was “increased”.
For `CC(C)C[C@H](NC(=O)[C@H](Cc1ccccc1)NC(=O)c1cnccn1)B(O)O` [bortezomib], the effect on survival ([2]; below 1 nM bortezomib) was “did not have effect on survival”, the “lowest concentration that induced cell death” value ([2]; bortezomib alone) was 5 nM and the cell survival ([2]; concentrations above 5 nM bortezomib, within 24 hours, DMEM:F12 with 5% FBS) was “all cells died”. For the same molecule, the cell survival ([2]; from 5 nM to 1 nM bortezomib) was “cell survived proportional with decreasing concentration”, the “abundance and content of CA125 (mean fluorescence intensity, sum of labeled pixels)” value (CA125) was “increase” and the “abundance and content of MUC1 (mean fluorescence intensity, sum of labeled pixels)” value (MUC1) was “increase”.
With “methyl-β-cyclodextrin [beta-methyl-cyclodextrin]” the “cholesterol and Wnt ligands of the plasma membrane of the cancer cells” value [3] was “depleted”.
`CC(=O)N[C@@H](CSC(=O)[C@]1([C@@H](O)C(C)C)NC(=O)[C@H](C)[C@@H]1O)C(=O)O` [lactacystin] was tested, and the “content of protein (including normal, mutated and misfolded proteins) in the cancer cells” value [1] was “increased”.
`CCCC(CCC)C(=O)O` [valproic acid] was tested, and the “level of histone acetylation, mRNA transcription, and protein expression, including expression of TAA” value [4] was “increase”.
`COC(=O)C[C@H](NC(=O)[C@H](C)NC(=O)[C@@H](NC(=O)OCc1ccccc1)C(C)C)C(=O)CF` [Z-VAD-fmk] (Cbz-Val-Ala-Asp(OMe)-CH2F) was tested, and the “effect on cell survival” value ([2]; Z-VAD-fmk 10-100 μM, without an apoptotic challenge) was “did not have an effect on cell survival”, the “accumulation of proteins, including TAA” value [5] was “accumulate to higher levels than in untreated cultures” and the “viability of the cultured cancer cells” value [5] was “maintaining a high degree of viability”.
In the case of `CC(C)(O)CC(=O)O` [HMB, beta-hydroxy beta-methylbutyrate], the “content of protein (including normal, mutated and misfolded proteins) in the cancer cells” value [1] is reported as “increased”.
`Nc1ncn([C@H]2C[C@H](O)[C@@H](CO)O2)c(=O)n1` [decitabine, 5-aza-2′-deoxycytidine] was tested, and the “expression of silenced germ line and tumor-specific antigens” value [6] was “increased and becomes more uniform” and the hypermethylation [6] was “reversed”.
